{"source": "BigSolDB 2.1", "data": [{"smiles": "OCc1ccc(O[C@@H]2O[C@H](CO)[C@@H](O)[C@H](O)[C@H]2O)cc1", "values": [{"measurement": "solubility (mole fraction)", "setting": "in 1,4-dioxane, 288.15 K", "value": 0.00324}, {"measurement": "solubility (mole fraction)", "setting": "in 1,4-dioxane, 293.15 K", "value": 0.00373}, {"measurement": "solubility (mole fraction)", "setting": "in 1,4-dioxane, 298.15 K", "value": 0.0043}, {"measurement": "solubility (mole fraction)", "setting": "in 1,4-dioxane, 303.15 K", "value": 0.00493}, {"measurement": "solubility (mole fraction)", "setting": "in 1,4-dioxane, 308.15 K", "value": 0.00562}, {"measurement": "solubility (mole fraction)", "setting": "in 1,4-dioxane, 313.15 K", "value": 0.0063}, {"measurement": "solubility (mole fraction)", "setting": "in acetone, 273.15 K", "value": 0.00097}, {"measurement": "solubility (mole fraction)", "setting": "in acetone, 278.15 K", "value": 0.00117}, {"measurement": "solubility (mole fraction)", "setting": "in acetone, 283.15 K", "value": 0.00142}, {"measurement": "solubility (mole fraction)", "setting": "in acetone, 288.15 K", "value": 0.00171}, {"measurement": "solubility (mole fraction)", "setting": "in acetone, 293.15 K", "value": 0.00199}, {"measurement": "solubility (mole fraction)", "setting": "in acetone, 298.15 K", "value": 0.00233}, {"measurement": "solubility (mole fraction)", "setting": "in acetone, 303.15 K", "value": 0.00273}, {"measurement": "solubility (mole fraction)", "setting": "in acetone, 308.15 K", "value": 0.00318}, {"measurement": "solubility (mole fraction)", "setting": "in acetone, 313.15 K", "value": 0.00368}, {"measurement": "solubility (mole fraction)", "setting": "in acetonitrile, 273.15 K", "value": 0.00066}, {"measurement": "solubility (mole fraction)", "setting": "in acetonitrile, 278.15 K", "value": 0.00076}, {"measurement": "solubility (mole fraction)", "setting": "in acetonitrile, 283.15 K", "value": 0.00088}, {"measurement": "solubility (mole fraction)", "setting": "in acetonitrile, 288.15 K", "value": 0.001}, {"measurement": "solubility (mole fraction)", "setting": "in acetonitrile, 293.15 K", "value": 0.00115}, {"measurement": "solubility (mole fraction)", "setting": "in acetonitrile, 298.15 K", "value": 0.0013}, {"measurement": "solubility (mole fraction)", "setting": "in acetonitrile, 303.15 K", "value": 0.00147}, {"measurement": "solubility (mole fraction)", "setting": "in acetonitrile, 308.15 K", "value": 0.00166}, {"measurement": "solubility (mole fraction)", "setting": "in acetonitrile, 313.15 K", "value": 0.00188}, {"measurement": "solubility (mole fraction)", "setting": "in cyclohexane, 273.15 K", "value": 0.000383}, {"measurement": "solubility (mole fraction)", "setting": "in cyclohexane, 278.15 K", "value": 0.000624}, {"measurement": "solubility (mole fraction)", "setting": "in cyclohexane, 283.15 K", "value": 0.000909}, {"measurement": "solubility (mole fraction)", "setting": "in cyclohexane, 288.15 K", "value": 0.00125}, {"measurement": "solubility (mole fraction)", "setting": "in cyclohexane, 293.15 K", "value": 0.0016}, {"measurement": "solubility (mole fraction)", "setting": "in cyclohexane, 298.15 K", "value": 0.00213}, {"measurement": "solubility (mole fraction)", "setting": "in cyclohexane, 303.15 K", "value": 0.00261}, {"measurement": "solubility (mole fraction)", "setting": "in cyclohexane, 308.15 K", "value": 0.00326}, {"measurement": "solubility (mole fraction)", "setting": "in cyclohexane, 313.15 K", "value": 0.00396}, {"measurement": "solubility (mole fraction)", "setting": "in cyclohexanone, 273.15 K", "value": 0.00128}, {"measurement": "solubility (mole fraction)", "setting": "in cyclohexanone, 278.15 K", "value": 0.00152}, {"measurement": "solubility (mole fraction)", "setting": "in cyclohexanone, 283.15 K", "value": 0.00185}, {"measurement": "solubility (mole fraction)", "setting": "in cyclohexanone, 288.15 K", "value": 0.0022}, {"measurement": "solubility (mole fraction)", "setting": "in cyclohexanone, 293.15 K", "value": 0.00257}, {"measurement": "solubility (mole fraction)", "setting": "in cyclohexanone, 298.15 K", "value": 0.00299}, {"measurement": "solubility (mole fraction)", "setting": "in cyclohexanone, 303.15 K", "value": 0.00344}, {"measurement": "solubility (mole fraction)", "setting": "in cyclohexanone, 308.15 K", "value": 0.00396}, {"measurement": "solubility (mole fraction)", "setting": "in cyclohexanone, 313.15 K", "value": 0.00455}, {"measurement": "solubility (mole fraction)", "setting": "in ethanol, 273.15 K", "value": 0.00085}, {"measurement": "solubility (mole fraction)", "setting": "in ethanol, 278.15 K", "value": 0.00105}, {"measurement": "solubility (mole fraction)", "setting": "in ethanol, 283.15 K", "value": 0.00129}, {"measurement": "solubility (mole fraction)", "setting": "in ethanol, 288.15 K", "value": 0.00157}, {"measurement": "solubility (mole fraction)", "setting": "in ethanol, 293.15 K", "value": 0.00188}, {"measurement": "solubility (mole fraction)", "setting": "in ethanol, 298.15 K", "value": 0.0022}, {"measurement": "solubility (mole fraction)", "setting": "in ethanol, 303.15 K", "value": 0.00255}, {"measurement": "solubility (mole fraction)", "setting": "in ethanol, 308.15 K", "value": 0.00296}, {"measurement": "solubility (mole fraction)", "setting": "in ethanol, 313.15 K", "value": 0.00337}, {"measurement": "solubility (mole fraction)", "setting": "in ethyl acetate, 273.15 K", "value": 0.00174}, {"measurement": "solubility (mole fraction)", "setting": "in ethyl acetate, 278.15 K", "value": 0.002}, {"measurement": "solubility (mole fraction)", "setting": "in ethyl acetate, 283.15 K", "value": 0.00234}, {"measurement": "solubility (mole fraction)", "setting": "in ethyl acetate, 288.15 K", "value": 0.00274}, {"measurement": "solubility (mole fraction)", "setting": "in ethyl acetate, 293.15 K", "value": 0.00318}, {"measurement": "solubility (mole fraction)", "setting": "in ethyl acetate, 298.15 K", "value": 0.00364}, {"measurement": "solubility (mole fraction)", "setting": "in ethyl acetate, 303.15 K", "value": 0.00418}, {"measurement": "solubility (mole fraction)", "setting": "in ethyl acetate, 308.15 K", "value": 0.00481}, {"measurement": "solubility (mole fraction)", "setting": "in ethyl acetate, 313.15 K", "value": 0.00543}, {"measurement": "solubility (mole fraction)", "setting": "in isopropanol, 273.15 K", "value": 0.00114}, {"measurement": "solubility (mole fraction)", "setting": "in isopropanol, 278.15 K", "value": 0.00139}, {"measurement": "solubility (mole fraction)", "setting": "in isopropanol, 283.15 K", "value": 0.00169}, {"measurement": "solubility (mole fraction)", "setting": "in isopropanol, 288.15 K", "value": 0.002}, {"measurement": "solubility (mole fraction)", "setting": "in isopropanol, 293.15 K", "value": 0.00235}, {"measurement": "solubility (mole fraction)", "setting": "in isopropanol, 298.15 K", "value": 0.00271}, {"measurement": "solubility (mole fraction)", "setting": "in isopropanol, 303.15 K", "value": 0.00312}, {"measurement": "solubility (mole fraction)", "setting": "in isopropanol, 308.15 K", "value": 0.00356}, {"measurement": "solubility (mole fraction)", "setting": "in isopropanol, 313.15 K", "value": 0.00403}, {"measurement": "solubility (mole fraction)", "setting": "in n-butanol, 273.15 K", "value": 0.0368}, {"measurement": "solubility (mole fraction)", "setting": "in n-butanol, 278.15 K", "value": 0.0395}, {"measurement": "solubility (mole fraction)", "setting": "in n-butanol, 283.15 K", "value": 0.0423}, {"measurement": "solubility (mole fraction)", "setting": "in n-butanol, 288.15 K", "value": 0.0454}, {"measurement": "solubility (mole fraction)", "setting": "in n-butanol, 293.15 K", "value": 0.0486}, {"measurement": "solubility (mole fraction)", "setting": "in n-butanol, 298.15 K", "value": 0.0521}, {"measurement": "solubility (mole fraction)", "setting": "in n-butanol, 303.15 K", "value": 0.0557}, {"measurement": "solubility (mole fraction)", "setting": "in n-butanol, 308.15 K", "value": 0.0595}, {"measurement": "solubility (mole fraction)", "setting": "in n-butanol, 313.15 K", "value": 0.0633}, {"measurement": "solubility (mole fraction)", "setting": "in n-propanol, 273.15 K", "value": 0.00074}, {"measurement": "solubility (mole fraction)", "setting": "in n-propanol, 278.15 K", "value": 0.00094}, {"measurement": "solubility (mole fraction)", "setting": "in n-propanol, 283.15 K", "value": 0.00115}, {"measurement": "solubility (mole fraction)", "setting": "in n-propanol, 288.15 K", "value": 0.00138}, {"measurement": "solubility (mole fraction)", "setting": "in n-propanol, 293.15 K", "value": 0.00165}, {"measurement": "solubility (mole fraction)", "setting": "in n-propanol, 298.15 K", "value": 0.00194}, {"measurement": "solubility (mole fraction)", "setting": "in n-propanol, 303.15 K", "value": 0.00226}, {"measurement": "solubility (mole fraction)", "setting": "in n-propanol, 308.15 K", "value": 0.00262}, {"measurement": "solubility (mole fraction)", "setting": "in n-propanol, 313.15 K", "value": 0.00301}, {"measurement": "solubility (mole fraction)", "setting": "in toluene, 273.15 K", "value": 0.00148}, {"measurement": "solubility (mole fraction)", "setting": "in toluene, 278.15 K", "value": 0.0018}, {"measurement": "solubility (mole fraction)", "setting": "in toluene, 283.15 K", "value": 0.00212}, {"measurement": "solubility (mole fraction)", "setting": "in toluene, 288.15 K", "value": 0.00248}, {"measurement": "solubility (mole fraction)", "setting": "in toluene, 293.15 K", "value": 0.00288}, {"measurement": "solubility (mole fraction)", "setting": "in toluene, 298.15 K", "value": 0.0033}, {"measurement": "solubility (mole fraction)", "setting": "in toluene, 303.15 K", "value": 0.00378}, {"measurement": "solubility (mole fraction)", "setting": "in toluene, 308.15 K", "value": 0.00431}, {"measurement": "solubility (mole fraction)", "setting": "in toluene, 313.15 K", "value": 0.00493}]}]}
